# Results as given in ChEMBL document CHEMBL3046909, “C(18) acetylenic fatty acids of Ximenia americana with potential pesticidal activity” (J Agric Food Chem, 2000).
# Key:
# [1] = (§1) Toxicity in Artemia (brine shrimps) larvae; format: organism-based; settings: in vivo
# [2] = test system: Clavigralla tomentosicollis; assay: Inhibition of hatching of Clavigralla tomentosicollis eggs in pods of cowpea at 4x10'4 ug/mL spray measured after 6 days; format: functional
# Artemia = assay: as §1; format: organism-based; settings: in vivo
Structure (SMILES),LC50 [1] [µg/mL],inhibition (INH) [2] [%],Activity (Artemia)
C/C=C/C=C/C#C/C=C\CCCCCCCCC(=O)O,20,92,
CC[C@H](CC[C@@H](C)[C@H]1CC[C@H]2[C@@H]3CC=C4C[C@@H](O)CC[C@]4(C)[C@H]3CC[C@]12C)C(C)C [BETA-SITOSTEROL],,,Non-toxic
